25 compounds from patent US9718819B2 (Merck Sharp & Dohme Corp., priority 2012, dated 2017) can be followed below.

This assay deals with HIV-1 RT wild-type enzyme (Human immunodeficiency virus type 1 group M subtype B (isolate HXB2) (HIV-1), UniProt P04585). In words: HIV-1 reverse transcriptase inhibitory activity (RT polymerase assay). Format: biochemical. Particulars: HIV-1 RT wild-type enzyme 83 pM; RNA-dependent DNA polymerase activity; read-out: IC50. The essentials:
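Enzyme and compound were preincubated 30 min at room temperature, then RNA/DNA hybrid (16.6 nM final; HCV-derived RNA, biotinylated primer) plus 2 μM dNTPs and 66.6 nM Ru-dUTP added, 90 min at 37 °C. Avidin capture and ECL counting; percent inhibition relative to DMSO (0%) and 1 μM efavirenz (100%), four-parameter IC50 fit.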
One may read the IC50 as the concentration needed to halve the response being measured. On to `CS(=O)(=O)c1cc(Cn2cnc(C(F)(F)F)c(Oc3cc(Cl)cc(C#N)c3)c2=O)n[nH]c1=O` [Example 96, 3-chloro-5-((1-((5-(methylsulfonyl)-6-oxo-1,6-dihydropyridazin-3-yl)methyl)-6-oxo-4-(trifluoromethyl)-1,6-dihydropyrimidin-5-yl)oxy)benzonitrile], for which the IC50 came to 336 nM.

In the case of `CCS(=O)(=O)c1cc(Cn2cnc(C(F)(F)F)c(Oc3cc(Cl)cc(C#N)c3)c2=O)n[nH]c1=O` [Example 97, 3-chloro-5-((1-((5-(ethylsulfonyl)-6-oxo-1,6-dihydropyridazin-3-yl)methyl)-6-oxo-4-(trifluoromethyl)-1,6-dihydropyrimidin-5-yl)oxy)benzonitrile], the IC50 worked out at 247 nM.

On to `N#Cc1cc(Cl)cc(Oc2c(C(F)(F)F)ncn(Cc3cc(-c4ccc(F)cn4)c(=O)[nH]n3)c2=O)c1` [Example 98, 3-chloro-5-((1-((5-(5-fluoropyridin-2-yl)-6-oxo-1,6-dihydropyridazin-3-yl)methyl)-6-oxo-4-(trifluoromethyl)-1,6-dihydropyrimidin-5-yl)oxy)benzonitrile], for which the IC50 is 9 nM.

For `N#Cc1cc(Cl)cc(Oc2c(C(F)(F)F)ncn(Cc3cc(-c4ccc(Cl)cn4)c(=O)[nH]n3)c2=O)c1` [Example 99, 3-chloro-5-((1-((5-(5-chloropyridin-2-yl)-6-oxo-1,6-dihydropyridazin-3-yl)methyl)-6-oxo-4-(trifluoromethyl)-1,6-dihydropyrimidin-5-yl)oxy)benzonitrile], the IC50 came out at 7 nM.

As for `COC(=O)c1cc(Cn2cnc(C(F)(F)F)c(Oc3cc(Cl)cc(C#N)c3)c2=O)n[nH]c1=O` [Example 100, methyl 6-((5-(3-chloro-5-cyanophenoxy)-6-oxo-4-(trifluoromethyl)pyrimidin-1(6H)-yl)methyl)-3-oxo-2,3-dihydropyridazine-4-carboxylate], the IC50 came to 23 nM.

For `N#Cc1cc(Cl)cc(Oc2c(C(F)(F)F)ncn(Cc3cc(C(N)=O)c(=O)[nH]n3)c2=O)c1` [Example 101, 6-((5-(3-chloro-5-cyanophenoxy)-6-oxo-4-(trifluoromethyl)pyrimidin-1(6H)-yl)methyl)-3-oxo-2,3-dihydropyridazine-4-carboxamide], the IC50 stood at 153 nM.

`N#Cc1cc(Cl)cc(Oc2c(C(F)(F)F)ncn(Cc3cc(C(F)F)c(=O)[nH]n3)c2=O)c1` [Example 102, 3-chloro-5-((1-((5-(difluoromethyl)-6-oxo-1,6-dihydropyridazin-3-yl)methyl)-6-oxo-4-(trifluoromethyl)-1,6-dihydropyrimidin-5-yl)oxy)benzonitrile]: the IC50 came out at 20 nM.

As for `N#Cc1cc(Cl)cc(Oc2c(C(F)(F)F)ncn(Cc3cc(C(O)C(F)(F)F)c(=O)[nH]n3)c2=O)c1` (stereo not shown) [Example 103, 3-chloro-5-((6-oxo-1-((6-oxo-5-(2,2,2-trifluoro-1-hydroxyethyl)-1,6-dihydropyridazin-3-yl)methyl)-4-(trifluoromethyl)-1,6-dihydropyrimidin-5-yl)oxy)benzonitrile], the IC50 is 74 nM.

Take `CC(=O)c1cc(Cn2cnc(C(F)(F)F)c(Oc3cc(Cl)cc(C#N)c3)c2=O)n[nH]c1=O` [Example 105, 3-((1-((5-acetyl-6-oxo-1,6-dihydropyridazin-3-yl)methyl)-6-oxo-4-(trifluoromethyl)-1,6-dihydropyrimidin-5-yl)oxy)-5-chlorobenzonitrile]: the IC50 worked out at 19 nM.

For the compound `COc1cc(Cn2cnc(C(F)(F)F)c(Oc3cc(Cl)cc(C#N)c3)c2=O)n[nH]c1=O` [Example 106, 3-chloro-5-((1-((5-methoxy-6-oxo-1,6-dihydropyridazin-3-yl)methyl)-6-oxo-4-(trifluoromethyl)-1,6-dihydropyrimidin-5-yl)oxy)benzonitrile], the IC50 came to 12 nM.

Turning to `N#Cc1cc(Cl)cc(Oc2c(C(F)(F)F)ncn(Cc3cc(O)c(=O)[nH]n3)c2=O)c1` [Example 107, 3-chloro-5-((1-((5-hydroxy-6-oxo-1,6-dihydropyridazin-3-yl)methyl)-6-oxo-4-(trifluoromethyl)-1,6-dihydropyrimidin-5-yl)oxy)benzonitrile], the IC50 was found to be 223 nM.

Turning to `N#Cc1cc(Cl)cc(Oc2c(C(F)(F)F)ncn(Cc3cc(Oc4ccc(F)cc4)c(=O)[nH]n3)c2=O)c1` [Example 108, 3-chloro-5-((1-((5-(4-fluorophenoxy)-6-oxo-1,6-dihydropyridazin-3-yl)methyl)-6-oxo-4-(trifluoromethyl)-1,6-dihydropyrimidin-5-yl)oxy)benzonitrile], the IC50 turned out to be 316 nM.

Take `N#Cc1cc(Cl)cc(Oc2c(C(F)(F)F)ncn(Cc3cc(OC(F)F)c(=O)[nH]n3)c2=O)c1` [Example 109, 3-chloro-5-((1-((5-(difluoromethoxy)-6-oxo-1,6-dihydropyridazin-3-yl)methyl)-6-oxo-4-(trifluoromethyl)-1,6-dihydropyrimidin-5-yl)oxy)benzonitrile]: the IC50 amounted to 7 nM.

On to `Cn1cc(-c2cc(Cn3cnc(C(F)(F)F)c(Oc4cc(Cl)cc(C#N)c4)c3=O)c(=O)[nH]n2)cn1` [Example 111, 3-chloro-5-((1-((6-(1-methyl-1H-pyrazol-4-yl)-3-oxo-2,3-dihydropyridazin-4-yl)methyl)-6-oxo-4-(trifluoromethyl)-1,6-dihydropyrimidin-5-yl)oxy)benzonitrile], for which the IC50 amounted to 10 nM.

Turning to `N#Cc1cc(Cl)cc(Oc2c(C(F)(F)F)ncn(Cc3cc(-c4ccc(F)cc4)n[nH]c3=O)c2=O)c1` [Example 112, 3-chloro-5-((1-((6-(4-fluorophenyl)-3-oxo-2,3-dihydropyridazin-4-yl)methyl)-6-oxo-4-(trifluoromethyl)-1,6-dihydropyrimidin-5-yl)oxy)benzonitrile], the IC50 turned out to be 5 nM.

For the compound `N#Cc1cc(Cl)cc(Oc2c(C(F)(F)F)ncn(Cc3cc(-c4cccc(F)c4)n[nH]c3=O)c2=O)c1` [Example 113, 3-chloro-5-((1-((6-(3-fluorophenyl)-3-oxo-2,3-dihydropyridazin-4-yl)methyl)-6-oxo-4-(trifluoromethyl)-1,6-dihydropyrimidin-5-yl)oxy)benzonitrile], the half-inhibitory concentration (IC50) came out at 6 nM.

As for `Cn1nccc1-c1cc(Cn2cnc(C(F)(F)F)c(Oc3cc(Cl)cc(C#N)c3)c2=O)c(=O)[nH]n1` [Example 114, 3-chloro-5-((1-((6-(1-methyl-1H-pyrazol-5-yl)-3-oxo-2,3-dihydropyridazin-4-yl)methyl)-6-oxo-4-(trifluoromethyl)-1,6-dihydropyrimidin-5-yl)oxy)benzonitrile], the IC50 came to 7 nM.

With `N#Cc1cc(Cl)cc(Oc2c(C(F)(F)F)ncn(Cc3cc(-c4ccc(OC(F)F)cc4)n[nH]c3=O)c2=O)c1` [Example 115, 3-chloro-5-((1-((6-(4-(difluoromethoxy)phenyl)-3-oxo-2,3-dihydropyridazin-4-yl)methyl)-6-oxo-4-(trifluoromethyl)-1,6-dihydropyrimidin-5-yl)oxy)benzonitrile], the IC50 was 7 nM.

Take `N#Cc1cc(Cl)cc(Oc2c(C(F)(F)F)ncn(Cc3cc(-c4ccc(OC(F)(F)F)cc4)n[nH]c3=O)c2=O)c1` [Example 116, 3-chloro-5-((6-oxo-1-((3-oxo-6-(4-(trifluoromethoxy)phenyl)-2,3-dihydropyridazin-4-yl)methyl)-4-(trifluoromethyl)-1,6-dihydropyrimidin-5-yl)oxy)benzonitrile]: the IC50 came to 21 nM.

In the case of `N#Cc1cc(Cl)cc(Oc2c(C(F)(F)F)ncn(Cc3cc(-c4ccc(C(F)(F)F)cc4)n[nH]c3=O)c2=O)c1` [Example 119, 3-chloro-5-((6-oxo-1-((3-oxo-6-(4-(trifluoromethyl)phenyl)-2,3-dihydropyridazin-4-yl)methyl)-4-(trifluoromethyl)-1,6-dihydropyrimidin-5-yl)oxy)benzonitrile], the IC50 came to 12 nM.

As to `N#Cc1cc(Cl)cc(Oc2c(C(F)(F)F)ncn(Cc3cc(-c4cccc(F)c4F)n[nH]c3=O)c2=O)c1` [Example 120, 3-chloro-5-((1-((6-(2,3-difluorophenyl)-3-oxo-2,3-dihydropyridazin-4-yl)methyl)-6-oxo-4-(trifluoromethyl)-1,6-dihydropyrimidin-5-yl)oxy)benzonitrile], the IC50 came to 3 nM.

As to `N#Cc1cc(Cl)cc(Oc2c(C(F)(F)F)ncn(Cc3cc(-c4ccc(F)c(F)c4)n[nH]c3=O)c2=O)c1` [Example 121, 3-chloro-5-((1-((6-(3,4-difluorophenyl)-3-oxo-2,3-dihydropyridazin-4-yl)methyl)-6-oxo-4-(trifluoromethyl)-1,6-dihydropyrimidin-5-yl)oxy)benzonitrile], the IC50 was 5 nM.

As for `N#Cc1cc(Cl)cc(Oc2c(C(F)(F)F)ncn(Cc3cc(-c4ccc(C#N)c(F)c4)n[nH]c3=O)c2=O)c1` [Example 122, 4-(5-((5-(3-chloro-5-cyanophenoxy)-6-oxo-4-(trifluoromethyl)pyrimidin-1(6H)-yl)methyl)-6-oxo-1,6-dihydropyridazin-3-yl)-2-fluorobenzonitrile], the half-inhibitory concentration (IC50) was found to be 6 nM.

Regarding `N#Cc1cc(Cl)cc(Oc2c(C(F)(F)F)ncn(Cc3cc(-c4ccc(Cl)c(F)c4)n[nH]c3=O)c2=O)c1` [Example 123, 3-chloro-5-((1-((6-(4-chloro-3-fluorophenyl)-3-oxo-2,3-dihydropyridazin-4-yl)methyl)-6-oxo-4-(trifluoromethyl)-1,6-dihydropyrimidin-5-yl)oxy)benzonitrile], the IC50 was 6 nM.

Regarding `N#Cc1cc(Cl)cc(Oc2c(C(F)(F)F)ncn(Cc3cc(-c4cccnc4)n[nH]c3=O)c2=O)c1` [Example 124, 3-chloro-5-((6-oxo-1-((3-oxo-6-(pyridin-3-yl)-2,3-dihydropyridazin-4-yl)methyl)-4-(trifluoromethyl)-1,6-dihydropyrimidin-5-yl)oxy)benzonitrile], the IC50 is 6 nM.
